Values after ≈ are worked out from the molar mass of the structure shown.
Assays:
[1] = Human microsomal stability assay; format: in vitro ADME; conditions: human liver microsomes 0.5 mg/mL, 37° C., pH 7.4, NADPH regenerating system, 0-30 minutes
Experimental: Human Microsomal Stability Assay
Human liver microsomes (Cat. NO.: 452117, Corning, USA) were preincubated with test compound for 10 minutes at 37° C. in 100 mM potassium phosphate buffer, pH 7.4. The reactions were initiated by adding NADPH regenerating system. The final incubation mixtures contained […] test compound, 0.5 mg/mL liver microsomal protein, 1 mM MgCl2, 1 mM NADP, 1 unit/mL isocitric dehydrogenase and 6 mM isocitric acid in 100 mM potassium phosphate buffer, pH 7.4. After incubation times of 0, 3, 6, 9, 15 and 30 minutes at 37° C., 300 μL of cold ACN (including internal standard) was added to 100 μL incubation mixture to terminate the reaction. Following precipitation and centrifugation, 100 μL supernatant will be taken out and added 300 uL water. The amount of compound remaining in the samples was determined by LC-MS/MS. Controls of no NADPH regenerating system at zero and 30 minutes were also prepared and analyzed. The results were categorized as: low (<7.0 mLJmin/kg), medium (7.0-16.2 mL/min/kg) and high (16.2-23.2 mLJmin/kg).

[2] = system: Balb/c 3T3 mouse fibroblasts; test: 3T3 in vitro phototoxicity assay; format: cell-based; conditions: Neutral Red uptake; for Phototoxicity factor: Factor=IC50(−UV)/IC50(+UV), cut-off factor >5; for IC50: Mus musculus, BALB/c3T3, light or radiation study, with approx. 5 J/cm2 UVA light
Source text: 3T3 In Vitro Phototoxicity Assay
Phototoxicity is defined as a toxic response that is elicited after the first exposure of the skin to certain chemicals and subsequent exposure to light, or that is induced similarly by skin irradiation after systemic administration of a chemical substance. The assay used in this study is designed to detect the phototoxic potential of a chemical by using a simple in vitro cytotoxicity assay with Balb/c 3T3 mouse fibroblasts. The principle of this test is a comparison of the cytotoxicity of a chemical when tested with and without exposure to a non-toxic dose of UVA-light. Cytotoxicity is expressed as a dose dependent reduction of the growth rate of cells as determined by uptake of the vital dye Neutral Red one day after treatment.
A small amount of substance was weighed and formulated freshly in DMSO just before the start of the exposure of the cells. This stock solution or appropriate dilutions with DMSO were added to the cell suspensions to obtain the required final concentrations. All solutions were generally prepared in Eppendorf caps and discarded after use.
For this study the Neutral Red uptake (NRU) assay of Borenfreund and Puemer (Borenfreund, E, Puemer J A. Toxicity determined in vitro by morphological alterations and Neutral Red absorption. Toxicology Lett. 1985; 24:119-124) modified according to INVITTOX protocol No 78 (ERGATT/FRAME data bank of in vitro techniques in toxicology. INVITTOX PROTOCOL No 78. 3T3 NRU Phototoxicity Assay. March 1994) has been adapted to examine a possible phototoxic potential of the test item. This assay is based on the active uptake of the Neutral Red dye into the lysosomes of cultured murine fibroblasts. Because lysosomal membranes are known to be a site of action of many phototoxic compounds, this assay can provide a measure of potential for phototoxic injury.
A murine fibroblasts clone A 31 (ATCC no. CCL 163—passage No. 108) were cultured in 175 cm2 tissue culture grade flasks, containing sDMEM (Dulbecco's Minimal Essential Medium, supplemented with 10% fetal calf serum, 2 mM L-glutamine, 100 units/ml Penicillin and 100 μg/ml streptomycin) at 37° C. in a humidified atmosphere of 6% C02. Before cells approach confluence they were removed from flasks by trypsinisation. Prior to use in an assay, the cells were transferred to 96-well microtiter plates at a concentration of 1×10^4 cells/well in 100 μl volumes of sDMEM and allowed to attach for 24 h.
For incubation with murine fibroblasts, the test item was diluted in PBS/3% DMSO (detailed concentrations see in results).
Culture medium (Dulbecco's Modified Eagle Medium (DMEM), GlutaMAX (Gibco Ref 21885-025), 10% Fetal Bovine Serum (FBS) (Gibco Ref 10270-106), 100 IU/ml Penicillin and 100 μg/ml Streptomycin (Gibco Ref 15140-122)) was removed from the wells and murine fibroblasts were washed with PBS. Afterwards 100 μL of PBS/3% DMSO containing the test item was added and target cells were incubated for 1 h at 37° C. with 6% CO2.
For each test item the microtiter plates were prepared according to Table 4. “UVA plates” were exposed to approx. 5 J/cm2 UVA light, the “Dark plates” were kept in the dark and served as cytotoxicity control. Plates with chlorpromazine hydrochloride served as positive control. UV flux was measured with a UV-meter (Dr. Gröbel RM21).
Following UV irradiation, the test item was removed from the wells (one washing step with PBS) and replaced with sDMEM. Target cells were then incubated overnight at 37° C. in 6% CO2.
Each plate contained wells with cells and solvent but without test item which were either not incubated with Neutral Red solution (0% standard—S1) or were stained with Neutral Red (100% standard—S2) for calculation of the standard cell viability curve. Wells labeled with U01-U08 contained the different test item concentrations.
After the incubation the wells to be assayed were filled with 100 μL of the sDMEM containing Neutral Red. […]

Row | Compound | CL (h) [1] | Phototoxicity factor [2] | IC50 [2]
1 | C[C@@H]1CN(c2ccc(C#N)c3ncccc23)C[C@@H]2c3ccc(N4CC(C)(N)C4)cc3CN12 [Example 39, 5-[(4R,10bS)-8-(3-amino-3-methyl-azetidin-1-yl)-4-methyl-3,4,6,10b-tetrahydro-1H-pyrazino[2,1-a]isoindol-2-yl]quinoline-8-carbonitrile] | 6.2 mL/min/kg | 1.00 | > 100 µg/mL
2 | CO[C@@H]1CN(c2ccc3c(c2)CN2[C@H](C)CN(c4ccc(C#N)n5nccc45)C[C@H]32)C[C@H]1N [Example 94, 4-[(4R,10bS)-8-[(3R,4R)-3-amino-4-methoxy-pyrrolidin-1-yl]-4-methyl-3,4,6,10b-tetrahydro-1H-pyrazino[2,1-a]isoindol-2-yl]pyrazolo[1,5-a]pyridine-7-carbonitrile] | – | 1.99 | 39 µg/mL (≈ 87.9 µM)
3 | C[C@@H]1CN(c2ccc(C#N)c3ncccc23)C[C@@H]2c3ccc(N4CC5CNCC(C4)O5)cc3CN12 [Example 14, 5-[(4R,10bS)-4-methyl-8-(9-oxa-3,7-diazabicyclo[3.3.1]nonan-3-yl)-3,4,6,10b-tetrahydro-1H-pyrazino[2,1-a]isoindol-2-yl]quinoline-8-carbonitrile] | 6.2 mL/min/kg | 1.00 | > 100 µg/mL
4 | C[C@@H]1CN(c2ccc(C#N)c3ncccc23)C[C@@H]2c3ccc(N4CCC(N)(CO)C4)cc3CN12 (stereo partly drawn) [Example 19, 5-[(4R,10bS)-8-[3-amino-3-(hydroxymethyl)pyrrolidin-1-yl]-4-methyl-3,4,6,10b-tetrahydro-1H-pyrazino[2,1-a]isoindol-2-yl]quinoline-8-carbonitrile] | 7.7 mL/min/kg | – | –
5 | C[C@@H]1CN(c2ccc(C#N)c3ncccc23)C[C@@H]2c3ccc(N4CCOC[C@@H](N)C4)cc3CN12 [Example 54B, 5-[(4R,10bS)-8-[(6S)-6-amino-1,4-oxazepan-4-yl]-4-methyl-3,4,6,10b-tetrahydro-1H-pyrazino[2,1-a]isoindol-2-yl]quinoline-8-carbonitrile] | 7.0 mL/min/kg | 1.00 | > 100 µg/mL
6 | C[C@@H]1CN(c2ccc(C#N)c3ncccc23)C[C@@H]2c3ccc(N[C@H]4CNC[C@H]4F)cc3CN12 [Example 30, 5-[(4R,10bS)-8-[[(3S,4R)-4-fluoropyrrolidin-3-yl]amino]-4-methyl-3,4,6,10b-tetrahydro-1H-pyrazino[2,1-a]isoindol-2-yl]quinoline-8-carbonitrile] | 8.8 mL/min/kg | >1.9 | 54.6 µg/mL (≈ 123 µM)
7 | C[C@@H]1CN(c2ccc(C#N)c3ncccc23)C[C@@H]2c3ccc(NCCN(C)C)cc3CN12 [Example 26, 5-[(4R,10bS)-8-[2-(dimethylamino)ethylamino]-4-methyl-3,4,6,10b-tetrahydro-1H-pyrazino[2,1-a]isoindol-2-yl]quinoline-8-carbonitrile] | 6.2 mL/min/kg | – | –
8 | C[C@@H]1CN(c2ccc(C#N)c3ncccc23)C[C@@H]2c3ccc(NC4CNC4)cc3CN12 [Example 28, 5-[(4R,10S)-8-(azetidin-3-ylamino)-4-methyl-3,4,6,10b-tetrahydro-1H-pyrazino[2,1-a]isoindol-2-yl]quinoline-8-carbonitrile] | 8.7 mL/min/kg | – | –
9 | C[C@@H]1CN(c2ccc(C#N)c3ncccc23)C[C@@H]2c3ccc(N4CCNC[C@H](O)C4)cc3CN12 [Example 53A, 5-[(4R,10bS)-8-[(6S)-6-hydroxy-1,4-diazepan-1-yl]-4-methyl-3,4,6,10b-tetrahydro-1H-pyrazino[2,1-a]isoindol-2-yl]quinoline-8-carbonitrile] | 8.6 mL/min/kg | – | –
10 | C[C@@H]1CN(c2ccc(C#N)c3nccnc23)C[C@@H]2c3ccc(N4CCNCC4)cc3CN12 [Example 7, 8-[(4R,10bS)-4-methyl-8-piperazin-1-yl-3,4,6,10b-tetrahydro-1H-pyrazino[2,1-a]isoindol-2-yl]quinoxaline-5-carbonitrile] | 7.8 mL/min/kg | – | –
11 | C[C@@H]1CN(c2ccc(C#N)c3ncccc23)C[C@@H]2c3ccc(N4CC5(CN(C)C5)C4)cc3CN12 [Example 38, 5-[(4R,10bS)-4-methyl-8-(6-methyl-2,6-diazaspiro[3.3]heptan-2-yl)-3,4,6,10b-tetrahydro-1H-pyrazino[2,1-a]isoindol-2-yl]quinoline-8-carbonitrile] | 6.2 mL/min/kg | – | –
12 | C[C@@H]1CN(c2ccc(C#N)c3ncccc23)C[C@@H]2c3ccc(N4CC[C@@H](N)C4)cc3CN12 [Example 20, 5-[(4R,10bS)-8-[(3R)-3-aminopyrrolidin-1-yl]-4-methyl-3,4,6,10b-tetrahydro-1H-pyrazino[2,1-a]isoindol-2-yl]quinoline-8-carbonitrile] | 6.5 mL/min/kg | – | –
13 | C[C@@H]1CN(c2ccc(C#N)c3ncccc23)CC2c3ccc(N4C[C@H](N)[C@@H](O)C4)cc3CN21 (relative stereo) [Example 21, 5-[(4R,10bS)-8-[trans-3-amino-4-hydroxy-pyrrolidin-1-yl]-4-methyl-3,4,6,10b-tetrahydro-1H-pyrazino[2,1-a]isoindol-2-yl]quinoline-8-carbonitrile] | 6.2 mL/min/kg | – | –
